How the values were obtained:
[1] = biological target: T1, Muscarinic acetylcholine receptor M2 (Homo sapiens, UniProt P08172); experiment: Muscarinic M2 Receptor Binding Assay
T1 sequence (P08172 whole entry): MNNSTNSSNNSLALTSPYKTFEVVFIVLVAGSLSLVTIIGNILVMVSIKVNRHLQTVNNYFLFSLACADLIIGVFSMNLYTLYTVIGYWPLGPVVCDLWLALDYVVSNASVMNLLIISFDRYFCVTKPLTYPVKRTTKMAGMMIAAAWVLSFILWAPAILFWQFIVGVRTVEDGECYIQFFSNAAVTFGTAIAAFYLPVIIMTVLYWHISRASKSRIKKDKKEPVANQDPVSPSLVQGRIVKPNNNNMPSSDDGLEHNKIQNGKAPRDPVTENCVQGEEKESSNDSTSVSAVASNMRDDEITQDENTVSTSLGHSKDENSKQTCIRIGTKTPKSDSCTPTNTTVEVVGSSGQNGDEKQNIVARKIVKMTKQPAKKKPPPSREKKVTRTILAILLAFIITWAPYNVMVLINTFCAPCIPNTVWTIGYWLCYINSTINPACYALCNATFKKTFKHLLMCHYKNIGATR
Method: Cell membrane homogenates (60 μg protein) were incubated for 60 minutes at 22° C. with 2 nM [3H]AF-DX 384 in the absence or presence of the test compound in a buffer containing 50 mM Tris-HCl (pH 7.4), 120 mM NaCl, 5 mM KCl, 5 mM MgCl2, and 1 mM EDTA. Nonspecific binding was determined in the presence of 1 μM atropine. Following incubation, the samples were filtered rapidly under vacuum through glass fiber filters (GF/B, Packard) presoaked with 0.3% PEI and rinsed several times with ice-cold 50 mM Tris-HCl using a 96-sample cell harvester (Unifilter, Packard). The filters were dried then counted for radioactivity in a scintillation counter (Topcount, Packard) using a scintillation cocktail (Microscint 0, Packard). The results were expressed as a percent inhibition of the control radioligand specific binding, from which the Ki was calculated. Data were analyzed using software developed at Cerep (Hill software) and validated by comparison with data generated by the commercial software SigmaPlot 4.0 for Windows ( 1997 by SPSS Inc.).

Menin = biological target: T2, Menin (Homo sapiens, UniProt O00255); experiment: Fluorescence Polarization (FP) Assay
T2 sequence (O00255 whole entry): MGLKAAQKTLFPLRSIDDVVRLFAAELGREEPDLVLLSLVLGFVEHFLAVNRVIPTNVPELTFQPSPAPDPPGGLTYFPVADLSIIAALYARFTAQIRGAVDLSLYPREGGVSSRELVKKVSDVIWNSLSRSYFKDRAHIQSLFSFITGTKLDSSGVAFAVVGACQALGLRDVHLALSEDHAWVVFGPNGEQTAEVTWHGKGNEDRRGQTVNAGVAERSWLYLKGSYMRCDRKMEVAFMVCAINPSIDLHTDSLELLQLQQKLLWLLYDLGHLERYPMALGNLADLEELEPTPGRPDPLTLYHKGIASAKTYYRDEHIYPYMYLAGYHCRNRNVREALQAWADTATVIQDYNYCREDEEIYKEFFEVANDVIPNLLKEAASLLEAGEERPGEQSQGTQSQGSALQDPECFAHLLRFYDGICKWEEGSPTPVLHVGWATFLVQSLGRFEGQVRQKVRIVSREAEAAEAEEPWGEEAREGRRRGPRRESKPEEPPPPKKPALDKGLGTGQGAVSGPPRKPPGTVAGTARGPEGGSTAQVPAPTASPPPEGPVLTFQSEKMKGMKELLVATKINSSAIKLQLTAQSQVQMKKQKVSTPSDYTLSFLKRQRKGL
Method: Compounds were tested in a biochemical binding assay using Menin protein at 2 nM (N6his-tev-Menin_4i80, PB-20-1459) and the substrate cRho110-Ahx-MBM1/MBM2 peptide (UbiQ, UbiQ-Q20201030; cRh110-Ahx-[…]-QRVPALLLPPG-NH2) at 1 nM.384 Low volume black plates (Corning #4514) were used. 5 μL/well compound or 3% DMSO was added at 10-fold serial dilutions in DMSO from 10 μM. 5 μL/well cRho110-Ahx-MBM1/MBM2 peptide or binding buffer (50 mM Tris pH 7.5, 50 mM NaCl, 1 mM TCEP, 0.01% BGG, 0.01% Brij-35) was added to all wells. 5 μL/well Menin protein or binding buffer (50 mM Tris pH 7.5, 50 mM NaCl, 1 mM TCEP, 0.01% BGG, 0.01% Brij-35) was added to all wells. Plates were read on an EnVision plate reader (Perkin Elmer) with excitation at 480 nm and emission at 535 nm P+S, and measured every 5 minutes for 180 minutes.

## CCN(C(=O)c1cc(F)ccc1-n1c(C)c(C(=O)C2CCN(C(=O)[C@H]3NC[C@@H]4C[C@@H]43)CC2)c2ccncc21)C(C)C (single isomer, unassigned) [US20240335431, Example 48-1]
[1]
  Ki: 6700 nM
Menin
  IC50: 1970 nM

## CC(C)N(C(=O)c1cc(F)ccc1-n1cc(C(=O)[C@@H]2CCN(C[C@H]3CC[C@H](NS(C)(=O)=O)CC3)C2)c2ccncc21)C(C)C [US20240335431, Example 4]
Menin
  IC50: 54 nM

## CC(C)N(C(=O)c1cc(F)ccc1-n1cc(C(=O)[C@@H]2CCCN(C(=O)[C@H]3N[C@@H]4CC[C@H]3C4)CC2)c2ccncc21)C(C)C (relative stereo) [US20240335431, Example 45]
Menin
  IC50: 36 nM

## CC(C)c1ncsc1-c1cc(F)ccc1-n1cc(C(=O)C2CN(C(=O)[C@H]3N[C@@H]4CC[C@H]3C4)C2)c2ccncc21 [US20240335431, Example 12]
Menin
  IC50: 6 nM

## C[C@@H]1COC[C@H](C)N1C(=O)c1cc(F)ccc1-n1cc(C(=O)C2CCN(C(=O)[C@H]3N[C@@H]4CC[C@H]3C4)CC2)c2ccncc21 [US20240335431, Example 35]
Menin
  IC50: 97 nM

## CC(C)N(C(=O)c1cc(F)ccc1-n1cc(C(=O)C2CCN(C(=O)[C@H]3NC[C@@H]4CCC[C@@H]43)CC2)c2ccncc21)C(C)C [US20240335431, Example 21]
Menin
  IC50: 16 nM

## CC(C)c1ncncc1-c1cc(F)ccc1-n1cc(C(=O)C2CCN(C(=O)[C@H]3N[C@@H]4CC[C@H]3C4)CC2)c2ccncc21 [US20240335431, Example 37]
Menin
  IC50: 9 nM

## CCN(C(=O)c1cc(F)ccc1-n1cc(C(=O)C2CN(C(=O)[C@H]3N[C@@H]4CC[C@H]3C4)C2)c2ccncc21)C(C)C [US20240335431, Example 8]
Menin
  IC50: 27 nM

## CC(C)N(C(=O)c1cc(F)ccc1-n1cc(C(=O)C2CCN(C(=O)[C@H]3NC[C@@H]4C[C@@H]43)CC2)c2ccncc21)C(C)C [US20240335431, Example 19]
Menin
  IC50: 16 nM

## CC(C)c1cnccc1-c1cc(F)ccc1-n1cc(C(=O)C2CN(C(=O)[C@H]3N[C@@H]4CC[C@H]3C4)C2)c2ccncc21 [US20240335431, Example 11]
Menin
  IC50: 4 nM

## Cc1c(C(=O)C2CCN(C(=O)[C@H]3NC[C@@H]4C[C@@H]43)CC2)c2ccncc2n1-c1ccc(F)cc1C(=O)N(C(C)C)C(C)C (single isomer, unassigned) [US20240335431, Example 55-1]
Menin
  IC50: 1340 nM

## Cc1c(C(=O)C2CCN(C(=O)[C@@H]3CCC(C)(C)N3)CC2)c2ccncc2n1-c1ccc(F)cc1C(=O)N(C(C)C)C(C)C (single isomer, unassigned) [US20240335431, Example 56-1]
Menin
  IC50: 2150 nM

## CC(C)N(C(=O)c1cc(F)ccc1-n1cc(C(=O)C2CCN(C[C@H]3CC[C@H](NS(C)(=O)=O)CC3)CC2)c2ccncc21)C(C)C [US20240335431, Example 17]
Menin
  IC50: 21 nM

## CCN(C(=O)c1cc(F)ccc1-n1c(C)c(C(=O)C2CCN(C(=O)[C@H]3N[C@@H]4CC[C@H]3C4)CC2)c2ccncc21)C(C)C [US20240335431, Example 46]
Menin
  IC50: 34 nM

## CC(C)c1ncccc1-c1cc(F)ccc1-n1cc(C(=O)C2CN(C(=O)[C@H]3N[C@@H]4CC[C@H]3C4)C2)c2ccncc21 [US20240335431, Example 10]
Menin
  IC50: 4 nM

## CC(C)c1ncccc1-c1cc(F)ccc1-n1cc(C(=O)C2CCN(C(=O)[C@H]3N[C@@H]4CC[C@H]3C4)CC2)c2ccncc21 [US20240335431, Example 38]
Menin
  IC50: 13 nM

## CC(C)N(C(=O)c1cc(F)ccc1-n1cc(C(=O)C2CN(C(=O)[C@H]3NC4CCC3CC4)C2)c2ccncc21)C(C)C [US20240335431, Example 6]
Menin
  IC50: 42 nM

Reference: BindingDB's records for patent US20240335431 (Acerta Pharma, 2024)
